Data published in the supplement of paper PMC11208160.
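Note: IS621 bridge recombinase in Escherichia coli cells against a fixed T5 target plasmid.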

Assay: recombinant UMI read abundance after kanamycin selection (control-corrected) (log10(CPM+1)); higher = more efficient recombination; extreme values may be limits of the assay; sequences stand for … in AGTGCAGAGAAAATCGGCCAGTTTTCTCTGCCTGCAGTCCGCATGCCGTGGGACCCCTTGGGTTCTAACCTGTTGCCTAGATTTATGCAGCGGACTGCCTTTCTCCCAAAGTGATAAACCGG…AGGTTGGTTTCACT; site = the 11-nt donor
How it was run: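 Two replicates each of selected and unselected plating were used in this pooled Escherichia coli screen of donor and donor-binding-loop pairs for the IS621 bridge recombinase. Selection was with IPTG (0.07 mM) and kanamycin. Counts of recombinant UMIs, amplified across the donor–target junction, were converted to CPM, averaged, scaled by control-derived factors and reported as log10(CPM+1).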
For “CTTAAAGCATGGACCGGTTTTCCCGGTAATCCGTATTTGAT (site CATAAAGCTAT)”, the “recombinant UMI read abundance (log10)” value was 0.
In the case of “CTTAAAGCATGGACCGGTTTTCCCGGTAATCCGTATTTGAT (site CCTAAAGCTAT)”, the “recombinant UMI read abundance (log10)” value is reported as 0.
For “CTTAAAGCATGGACCGGTTTTCCCGGTAATCCGTATTTGAT (site CGTAAAGCTAT)”, the “recombinant UMI read abundance (log10)” value was 0.
With “CTTAAAGCATGGACCGGTTTTCCCGGTAATCCGTATTTGAT (site CTTAAAGCTAT)” the “recombinant UMI read abundance (log10)” value was 1.08.
For “CTTAATACATGGACCGGTTTTCCCGGTAATCCGTATTTGGC (site CATAATACTGC)”, the “recombinant UMI read abundance (log10)” value was 0.00796.
For “CTTAATACATGGACCGGTTTTCCCGGTAATCCGTATTTGGC (site CCTAATACTGC)”, the “recombinant UMI read abundance (log10)” value was 0.
For “CTTAATACATGGACCGGTTTTCCCGGTAATCCGTATTTGGC (site CGTAATACTGC)”, the “recombinant UMI read abundance (log10)” value was 0.0463.
For “CTTAATACATGGACCGGTTTTCCCGGTAATCCGTATTTGGC (site CTTAATACTGC)”, the “recombinant UMI read abundance (log10)” value was 0.
In the case of “CTTACGGCATGGACCGGTTTTCCCGGTAATCCGTATTTGAT (site CTTACGGCTAT)”, the “recombinant UMI read abundance (log10)” value is reported as 1.44.
For “CTTACTACATGGACCGGTTTTCCCGGTAATCCGTATTTGGC (site CTTACTACTGC)”, the “recombinant UMI read abundance (log10)” value was 0.688.
For “CTTAGAACATGGACCGGTTTTCCCGGTAATCCGTATTTGGC (site ATTAGAACTGC)”, the “recombinant UMI read abundance (log10)” value was 0.
With “CTTAGAACATGGACCGGTTTTCCCGGTAATCCGTATTTGGC (site CTTAGAACTGC)” the “recombinant UMI read abundance (log10)” value was 1.4.
In the case of “CTTAGAACATGGACCGGTTTTCCCGGTAATCCGTATTTGGC (site GTTAGAACTGC)”, the “recombinant UMI read abundance (log10)” value is reported as 0.016.
For “CTTAGAACATGGACCGGTTTTCCCGGTAATCCGTATTTGGC (site TTTAGAACTGC)”, the “recombinant UMI read abundance (log10)” value was 0.
In the case of “CTTCAATCATGGACCGGTTTTCCCGGTAATCCGTATTTGGA (site CTTCAATCTTC)”, the “recombinant UMI read abundance (log10)” value is reported as 1.71.
With “CTTCACTCATGGACCGGTTTTCCCGGTAATCCGTATTTGTA (site CTTCACTCTTA)” the “recombinant UMI read abundance (log10)” value was 1.73.
With “CTTCACTCATGGACCGGTTTTCCCGGTAATCCGTATTTGTA (site CTTCCCTCTTA)” the “recombinant UMI read abundance (log10)” value was 0.00659.
With “CTTCACTCATGGACCGGTTTTCCCGGTAATCCGTATTTGTA (site CTTCGCTCTTA)” the “recombinant UMI read abundance (log10)” value was 0.00683.
With “CTTCACTCATGGACCGGTTTTCCCGGTAATCCGTATTTGTA (site CTTCTCTCTTA)” the “recombinant UMI read abundance (log10)” value was 0.
With “CTTCAGTCATGGACCGGTTTTCCCGGTAATCCGTATTTGGC (site CTTCAGTCTGC)” the “recombinant UMI read abundance (log10)” value was 0.339.
In the case of “CTTCATACATGGACCGGTTTTCCCGGTAATCCGTATTTGTT (site CTTCATACTAA)”, the “recombinant UMI read abundance (log10)” value is reported as 1.32.
In the case of “CTTCCCTCATGGACCGGTTTTCCCGGTAATCCGTATTTGTG (site CTTCCCTCTCA)”, the “recombinant UMI read abundance (log10)” value is reported as 0.257.
For “CTTCCTACATGGACCGGTTTTCCCGGTAATCCGTATTTGTA (site CTTCCTACTTA)”, the “recombinant UMI read abundance (log10)” value was 0.451.
For “CTTCGCACATGGACCGGTTTTCCCGGTAATCCGTATTTGAA (site CTTCGCACTTT)”, the “recombinant UMI read abundance (log10)” value was 0.375.
In the case of “CTTCTCTCATGGACCGGTTTTCCCGGTAATCCGTATTTGTA (site ATTCTCTCTTA)”, the “recombinant UMI read abundance (log10)” value is reported as 0.402.
For “CTTCTCTCATGGACCGGTTTTCCCGGTAATCCGTATTTGTA (site CATCTCTCTTA)”, the “recombinant UMI read abundance (log10)” value was 0.954.
For “CTTCTCTCATGGACCGGTTTTCCCGGTAATCCGTATTTGTA (site CCTCTCTCTTA)”, the “recombinant UMI read abundance (log10)” value was 0.823.
With “CTTCTCTCATGGACCGGTTTTCCCGGTAATCCGTATTTGTA (site CGTCTCTCTTA)” the “recombinant UMI read abundance (log10)” value was 1.35.
In the case of “CTTCTCTCATGGACCGGTTTTCCCGGTAATCCGTATTTGTA (site CTACTCTCTTA)”, the “recombinant UMI read abundance (log10)” value is reported as 0.967.
For “CTTCTCTCATGGACCGGTTTTCCCGGTAATCCGTATTTGTA (site CTCCTCTCTTA)”, the “recombinant UMI read abundance (log10)” value was 1.89.
With “CTTCTCTCATGGACCGGTTTTCCCGGTAATCCGTATTTGTA (site CTGCTCTCTTA)” the “recombinant UMI read abundance (log10)” value was 0.693.
For “CTTCTCTCATGGACCGGTTTTCCCGGTAATCCGTATTTGTA (site CTTATCTCTTA)”, the “recombinant UMI read abundance (log10)” value was 0.00276.
In the case of “CTTCTCTCATGGACCGGTTTTCCCGGTAATCCGTATTTGTA (site CTTCACTCTTA)”, the “recombinant UMI read abundance (log10)” value is reported as 0.
In the case of “CTTCTCTCATGGACCGGTTTTCCCGGTAATCCGTATTTGTA (site CTTCCCTCTTA)”, the “recombinant UMI read abundance (log10)” value is reported as 0.181.
With “CTTCTCTCATGGACCGGTTTTCCCGGTAATCCGTATTTGTA (site CTTCGCTCTTA)” the “recombinant UMI read abundance (log10)” value was 0.00811.
For “CTTCTCTCATGGACCGGTTTTCCCGGTAATCCGTATTTGTA (site CTTCTATCTTA)”, the “recombinant UMI read abundance (log10)” value was 0.394.
In the case of “CTTCTCTCATGGACCGGTTTTCCCGGTAATCCGTATTTGTA (site CTTCTCACTTA)”, the “recombinant UMI read abundance (log10)” value is reported as 0.0108.
In the case of “CTTCTCTCATGGACCGGTTTTCCCGGTAATCCGTATTTGTA (site CTTCTCCCTTA)”, the “recombinant UMI read abundance (log10)” value is reported as 0.207.
With “CTTCTCTCATGGACCGGTTTTCCCGGTAATCCGTATTTGTA (site CTTCTCGCTTA)” the “recombinant UMI read abundance (log10)” value was 0.0131.
In the case of “CTTCTCTCATGGACCGGTTTTCCCGGTAATCCGTATTTGTA (site CTTCTCTCTAA)”, the “recombinant UMI read abundance (log10)” value is reported as 0.394.
In the case of “CTTCTCTCATGGACCGGTTTTCCCGGTAATCCGTATTTGTA (site CTTCTCTCTCA)”, the “recombinant UMI read abundance (log10)” value is reported as 0.552.
With “CTTCTCTCATGGACCGGTTTTCCCGGTAATCCGTATTTGTA (site CTTCTCTCTGA)” the “recombinant UMI read abundance (log10)” value was 0.448.
For “CTTCTCTCATGGACCGGTTTTCCCGGTAATCCGTATTTGTA (site CTTCTCTCTTA)”, the “recombinant UMI read abundance (log10)” value was 2.28.
For “CTTCTCTCATGGACCGGTTTTCCCGGTAATCCGTATTTGTA (site CTTCTCTCTTC)”, the “recombinant UMI read abundance (log10)” value was 0.278.
For “CTTCTCTCATGGACCGGTTTTCCCGGTAATCCGTATTTGTA (site CTTCTCTCTTG)”, the “recombinant UMI read abundance (log10)” value was 0.558.
In the case of “CTTCTCTCATGGACCGGTTTTCCCGGTAATCCGTATTTGTA (site CTTCTCTCTTT)”, the “recombinant UMI read abundance (log10)” value is reported as 0.676.
With “CTTCTCTCATGGACCGGTTTTCCCGGTAATCCGTATTTGTA (site CTTCTGTCTTA)” the “recombinant UMI read abundance (log10)” value was 0.00544.
In the case of “CTTCTCTCATGGACCGGTTTTCCCGGTAATCCGTATTTGTA (site CTTCTTTCTTA)”, the “recombinant UMI read abundance (log10)” value is reported as 0.
With “CTTCTCTCATGGACCGGTTTTCCCGGTAATCCGTATTTGTA (site CTTGTCTCTTA)” the “recombinant UMI read abundance (log10)” value was 0.00827.
In the case of “CTTCTCTCATGGACCGGTTTTCCCGGTAATCCGTATTTGTA (site CTTTTCTCTTA)”, the “recombinant UMI read abundance (log10)” value is reported as 0.
With “CTTCTCTCATGGACCGGTTTTCCCGGTAATCCGTATTTGTA (site GTTCTCTCTTA)” the “recombinant UMI read abundance (log10)” value was 0.0236.
With “CTTCTCTCATGGACCGGTTTTCCCGGTAATCCGTATTTGTA (site TTTCTCTCTTA)” the “recombinant UMI read abundance (log10)” value was 0.396.
For “CTTCTCTCATGGACCGGTTTTCCCGGTAATCCGTATTTGTG (site CTTCTCTCTAA)”, the “recombinant UMI read abundance (log10)” value was 0.0117.
For “CTTCTCTCATGGACCGGTTTTCCCGGTAATCCGTATTTGTG (site CTTCTCTCTCA)”, the “recombinant UMI read abundance (log10)” value was 0.154.
In the case of “CTTCTCTCATGGACCGGTTTTCCCGGTAATCCGTATTTGTG (site CTTCTCTCTGA)”, the “recombinant UMI read abundance (log10)” value is reported as 0.
With “CTTCTCTCATGGACCGGTTTTCCCGGTAATCCGTATTTGTG (site CTTCTCTCTTA)” the “recombinant UMI read abundance (log10)” value was 0.
With “CTTCTCTCATGGACCGGTTTTCCCGGTAATCCGTATTTGTT (site CTTCTCTCTAA)” the “recombinant UMI read abundance (log10)” value was 2.22.
